From ChEMBL document CHEMBL1201862, “PubChem BioAssay data set” (2004)
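Method: 48-hour compound exposure of cells in 96-well plates, five concentrations, linear interpolation of endpoints. The concentration for 50% growth inhibition is given as GI50.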 Calls of active or inactive are those of the source. Cut-off read from the data, not from the text of the source: active = GI50 up to about 1.1 µM and inactive = higher.

What was measured:
Assay in all cases: NCI tumour cell line growth inhibition, 48 h
[1] = system: HCT-116
[2] = system: Hs-578T
[3] = system: SN12C
[4] = system: SW-620
[5] = system: EKVX
[6] = system: A549
[7] = system: SNB-19
[8] = system: A498
[9] = system: HOP-92
[10] = system: UACC-62
[11] = system: OVCAR-8
[12] = system: NCI-H226
[13] = system: K562
[14] = system: RPMI-8226
[15] = system: OVCAR-3
[16] = system: SK-OV-3
[17] = system: CAKI-1
[18] = system: NCI-H522
[19] = system: DU-145

Structure (SMILES) | GI50 [1] | GI50 [2] | GI50 [3] | GI50 [4] | GI50 [5] | GI50 [6] | GI50 [7] | GI50 [8] | GI50 [9] | GI50 [10] | GI50 [11] | GI50 [12] | GI50 [13] | GI50 [14] | GI50 [15] | GI50 [16] | GI50 [17] | GI50 [18] | GI50 [19]
Cc1ccc(/N=C2/S/C(=C3/CCC=C3N3CCOCC3)N(c3ccc(Cl)cc3)/C2=N/c2ccc(C)cc2)cc1 | > 100 µM (inactive) | > 100 µM (inactive) | > 100 µM (inactive) | > 100 µM (inactive) | > 100 µM (inactive) | > 100 µM (inactive) | > 100 µM (inactive) | > 100 µM (inactive) | > 100 µM (inactive) | > 100 µM (inactive) | > 100 µM (inactive) | > 100 µM (inactive) | > 100 µM (inactive) | > 100 µM (inactive) |  |  |  |  | 
O=[N+]([O-])c1ccc2nc(/C(=N/Nc3ccccc3)C(O)c3ccc(C(O)/C(=N\Nc4ccccc4)c4nc5ccc([N+](=O)[O-])cc5nc4O)cc3)cnc2c1 (stereo not given) | 55.5 µM (inactive) |  | 44.1 µM (inactive) | > 100 µM (inactive) | > 100 µM (inactive) | 48.5 µM (inactive) | > 100 µM (inactive) | 32.1 µM (inactive) | > 100 µM (inactive) | 36 µM (inactive) | > 100 µM (inactive) |  | 13.6 µM (inactive) | 19.4 µM (inactive) | > 100 µM (inactive) | > 100 µM (inactive) | 60.4 µM (inactive) | 5.64 µM (inactive) | 
Clc1ccc2[nH]c(CC3CCCC3)nc2c1 | 16.1 µM (inactive) |  | 16.9 µM (inactive) | 22.4 µM (inactive) | 17.5 µM (inactive) | 21.7 µM (inactive) | 23.4 µM (inactive) |  | 12.9 µM (inactive) | 15.8 µM (inactive) | 25.6 µM (inactive) | 17.7 µM (inactive) | 3.14 µM (inactive) | 12.1 µM (inactive) | 6 µM (inactive) | 22.3 µM (inactive) | 3.31 µM (inactive) | 5.74 µM (inactive) | 20.9 µM (inactive)
Cc1ccc(S(=O)(=O)Nn2c(O)c(C#N)c(-c3ccc(N(C)C)cc3)c(C#N)c2=O)cc1 | > 50 µM (inactive) | > 50 µM (inactive) | > 50 µM (inactive) | > 50 µM (inactive) | > 50 µM (inactive) | > 50 µM (inactive) | > 50 µM (inactive) | > 50 µM (inactive) | > 50 µM (inactive) | 19.8 µM (inactive) | > 50 µM (inactive) | > 50 µM (inactive) | > 50 µM (inactive) | 9.75 µM (inactive) |  | 0.142 µM (active) | > 50 µM (inactive) | > 50 µM (inactive) | 
CCn1cc(C(=O)O)c(=O)c2ccc(C)nc21 [NALIDIXIC ACID] | > 100 µM (inactive) | > 100 µM (inactive) | > 100 µM (inactive) | > 100 µM (inactive) | > 100 µM (inactive) | > 100 µM (inactive) | > 100 µM (inactive) |  | 26.9 µM (inactive) |  | > 100 µM (inactive) | > 100 µM (inactive) | > 100 µM (inactive) | > 100 µM (inactive) | > 100 µM (inactive) |  | > 100 µM (inactive) | > 100 µM (inactive) | > 100 µM (inactive)
CC[C@]1(Cc2ccc(OC)c(OC)c2)[C@@H]2C[C@@H](C(=O)OC)ON2O[C@H](OC2CCCC2(c2ccccc2)c2ccccc2)[C@@H]1OC(C)=O (stereo not given in full) | > 100 µM (inactive) |  | > 100 µM (inactive) | > 100 µM (inactive) | > 100 µM (inactive) | > 100 µM (inactive) | > 100 µM (inactive) |  |  | > 100 µM (inactive) | > 100 µM (inactive) | > 100 µM (inactive) | > 100 µM (inactive) |  | > 100 µM (inactive) | > 100 µM (inactive) | > 100 µM (inactive) |  | > 100 µM (inactive)
CC1CC(C#N)=C2NCCCCN2C1=O (stereo not given) |  | > 100 µM (inactive) | > 100 µM (inactive) | > 100 µM (inactive) | > 100 µM (inactive) | > 100 µM (inactive) | > 100 µM (inactive) |  |  | > 100 µM (inactive) | > 100 µM (inactive) | > 100 µM (inactive) | > 100 µM (inactive) | > 100 µM (inactive) | > 100 µM (inactive) | > 100 µM (inactive) | > 100 µM (inactive) | > 100 µM (inactive) | > 100 µM (inactive)
CC1(C)C(=O)C(=Cc2ccco2)C1=O | > 100 µM (inactive) |  | > 100 µM (inactive) | > 100 µM (inactive) | > 100 µM (inactive) | > 100 µM (inactive) |  | > 100 µM (inactive) | > 100 µM (inactive) | > 100 µM (inactive) | > 100 µM (inactive) | > 100 µM (inactive) | > 100 µM (inactive) | > 100 µM (inactive) |  | > 100 µM (inactive) | > 100 µM (inactive) | > 100 µM (inactive) | 
